Reference: a melting point compilation (Tetko et al.; mined from patent text by program, amines drawn as free bases though some values may be those of a salt)

| melting point [°C] | SMILES |
| --- | --- |
| 75 to 77 | C=CCC(=C)C(O)C(NC=O)C(=O)OC (stereo not drawn) |
| > 300 | O=C1CC2CCc3cc(-n4ccc(=O)cc4)ccc3C2=NN1 (stereo not drawn) |
| 191 to 193 | CC1(C)OC(=S)Nc2ccc(-c3cccc(Br)c3)cc21 |
| 112 to 114 | N#CCCNC(=O)c1cccc(-c2ccc3c(c2)C(c2ccc(Cl)cc2Cl)CC3)c1 (stereo not drawn) |
| 104 | FC(F)(F)c1n[nH]c2ccccc12 |
| 167 to 169 | CCc1cccc(C(=O)NN(C(=O)c2cc(C)cc(C)c2)C(C)(C)C)c1C |
| 122 | C=CS(=O)(=O)c1ccc(NC(C)=O)cc1 |
| 89 to 90 | Nc1sc2c(c1C(=O)c1ccc(Br)cc1)CCN(C(=O)Nc1ccccc1)C2 |
| 101 | O=CN(Cc1ccccn1)C1(c2ccc(-c3ccccc3)cc2)CCC1 |
| 133 to 135 | COc1ccc2cc(C=O)ccc2c1Br |
| 325 to 326 | O=C(Nc1cccc2c(=O)cc(C(=O)O)oc12)c1ccc2c(c1)CCC(CCCc1ccccc1)O2 (stereo not drawn) |
| 118 to 120 | CN1CCC(c2c[nH]c3ccc(NC(=O)c4ccc(Cl)s4)nc23)CC1 |
| 71 to 73 | CC(C)NCC(O)COc1ncccc1Cl (stereo not drawn) |
| 114 to 115 | COc1nc(C)nc(OC)c1[N+](=O)[O-] |
| 293 to 295 | Cc1nnc2ccc(-c3ccc([N+](=O)[O-])c(C(F)(F)F)c3)nn12 |
| 98 to 99 | Cc1nccc(-c2ccccc2)c1/C=C/C=O |
| 191 | O=[N+]([O-])c1cnccc1NCCN1CCC(Nc2nc3ccccc3n2Cc2ccc(CO)o2)CC1 |
| 93 to 96 | Nc1nccnc1Cc1ccccc1 |

| melting point [°C] | SMILES |
| --- | --- |
| 240 | O=C(O)c1ccccc1Sc1ccc(Cl)cc1 |
| > 280 | NC(=O)c1c(I)cc(I)c(CCC(=O)O)c1I |
| 108 to 110 | CC1(C)OCc2c1nc1ccccc1c2Cl |
| 162 | O=C1NCCCN1C1(CO)CCNCC1 |
| 102 | OC1CSC(Oc2ccccc2-c2ccoc2)C(O)C1O (stereo not drawn) |
| 222 to 223 | O=C(Nc1cccc2ccccc12)NC(Cc1ccc(C(F)(F)F)cc1)C(O)c1ccc(F)cc1 (stereo not drawn) |
| 140 to 141 | Cc1cccc(N(C)c2nc(Cl)nc(Cl)n2)c1C |
| 132 to 133 | CC(C)(O)c1ccc(-c2cnc3[nH]c(=O)n(CCC4CCOCC4)c3n2)cn1 |
| 152 to 153 | Cc1c(NC(=O)c2ccc(-c3ccc(F)cc3)cc2)ccc2cc(CN3CCN(C)CC3)cnc12 |
| 141 to 142 | COc1cc(CCNC(=O)C(NC(=O)OC(C)(C)C)C(C)C)ccc1OCC#Cc1ccc(Cl)cc1 (stereo not drawn) |
| 107 to 109 | CC(C)c1cccc(C(C)C)c1NC(=O)CN1CC2(CCCCC2)N(c2ccccc2)C1=O |
| 158 | COc1ccc(S(=O)(=O)N(CC(N)=O)c2ccc(Cl)cc2C(O)c2ccccc2Cl)c(OC)c1 (stereo not drawn) |
| 93 | CCCN(CCC)[C@@H]1Cc2c(Br)ccc3c2[C@@H](C1)CN3C(=O)c1ccccc1 |
| 120 to 121 | CCOC(=O)c1csc(S)n1 |
| 200 to 202 | COC(=O)c1ccc(O)c(C(=O)CC(=O)c2cccnc2)c1 |
| 178 to 180 | CCN1CCC(NC(=O)c2ccc(NC(C)=O)cc2)N1CC (stereo not drawn) |
| 200 to 203 | O=C(N[C@@H](Cc1c[nH]cn1)C(=O)OCc1ccsc1)C(Cc1cccc2ccccc12)Cc1cccc2ccccc12 |
| 126 to 127 | CSC[C@H](NC(C)=O)C(=O)NO |

The next lines start with the compound.

| SMILES | melting point [°C] |
| --- | --- |
| N#CN=c1ccccn1C1=CC(CF)(CF)Oc2ccc(C(F)(F)C(F)(F)F)cc21 | 196 to 198 |
| CCOC(=O)C=Cc1ccc(C=Cc2ccc(Br)cc2)cc1 | 167 |
| Cc1cc(O)ccc1S(C)(=O)=O | 105 |
| CC(=O)NC[C@H]1CN(c2cc(F)c(N3CCC(O)(COCC(F)(F)F)CC3)c(F)c2)C(=O)O1 | 182 to 184 |
| Cc1nnsc1C(=O)Nc1ccc(-n2nc(C(F)(F)F)c(Cl)c2C2CC2)c(F)c1 | 143 to 147 |
| Cc1nccc2c3ccc(OCc4cccc(F)c4)cc3n(Cc3cccc(F)c3)c12 | 148 |
| CCOP(=O)(OCC)C(c1ccc2cc(O)ccc2c1)P(=S)(OCC)OCC (stereo not drawn) | 85.5 to 86.5 |
| COC(=O)CCCC(C)(C)c1cc(Cl)c(O)c(Cl)c1 | 101 to 103 |
| Nc1cccc(COc2cccc3cccnc23)c1 | 146 to 147 |
| Cc1cc(C)n2nc(S(=O)(=O)Nc3ccccc3Cl)nc2n1 | 188 to 190 |
| NC(=NCC(F)(F)F)Nc1ccn(CCCCO)n1 | 105 to 106 |
| c1cc2c3c(c1)[C@H]1CCC[C@H]1N3CCNCC2 (relative stereo) | > 130 |
| CC(Oc1c(Cl)cccc1Cl)C(N)=O (single isomer, unassigned; (-)) | 192 to 193 |
| COC(=O)C1=C(C)NC(c2cnc(Cl)s2)=NC1c1ccc(F)cc1Cl (stereo not drawn) | > 230 |
| Oc1ccc(-c2cc3c(Oc4ccc(Cl)cc4)cncc3s2)cc1 | 213 to 215 |
| CCN(Cc1ccc(OC(C)(C)C(=O)O)c(C)c1)c1cc(-c2ccc(Cl)cc2)nn1C | 208 |
| COC(=O)c1nc(-c2ccc(C(F)(F)F)cc2)nc(N)c1Cl | 204 to 205 |
| Cc1cccc2ncc(C(=O)NC3CC3)c(=O)n12 | 174 to 176 |
| COc1cccc(CCc2ccccc2OC[C@H]2CCCN(C(=O)OC(C)(C)C)C2)c1 | 150 to 152 |

| SMILES | melting point [°C] |
| --- | --- |
| CN(C)Cc1ccc(CSCCNc2nc(C(O)c3ccccc3)nn2C)o1 (stereo not drawn) | 121 to 122 |
| O=C1Cc2ccccc2N1NCCCc1ccncc1F | 114 to 116 |
| COc1cccc(Cl)c1C1C(=O)NC(C)(C(C)C)C1=O (stereo not drawn) | 172 to 174 |
| CC(C)(C)c1ccc(N2C(=O)CCC2=O)c([N+](=O)[O-])c1 | 135 to 138 |
| CN1CCc2nc3ccc(Cl)cc3c(Oc3ccccc3)c2C1 | 182 to 184 |
| COCCCS(=O)(=O)NC(=O)CCc1ccc(OCCOC)cc1Oc1ncc(C(F)(F)F)cc1Cl | 112 to 113 |
| COc1ccc(CC2Cc3cccc(-c4cccc(C(=O)NCCN5CCCC5)c4)c3O2)cc1OC (stereo not drawn) | 134 to 135 |
| CCOC(=O)c1c(CCl)nc2ccc(C)cc2c1-c1ccc(OC)c(OC)c1 | 125 to 126 |
| COc1cc(OC)nc(NC(=O)NS(=O)(=O)c2sccc2C(CCl)OC(C)=O)n1 (stereo not drawn) | 150 to 151 |
| CCOP(=O)(OCC)c1cccc(C)c1I | 56 to 58 |
| CCc1nnc(-c2ccc(N)cc2)n1-c1ccc(OC)cc1 | 210 |
| CCOC(=O)/C=C/c1cc(OCc2ccc(OCc3nc(-c4ccccc4)oc3C)c(OC)c2)nn1-c1ccccc1 | 121 to 122 |
| Cc1nc(OCCCc2cc(OC(C)C)nn2Cc2ccc(Cl)cc2Cl)c(CC(=O)O)s1 | 75 to 77 |
| C=CCNc1nc(NC(=O)N2CCCC2)c2scc(C)c2n1 | 98 to 101 |
| COc1ccc(CC(=Nc2ccccc2)NC(=S)NCCO)cc1 | 117 to 119 |
| CCOC(=O)CCCCC(=O)c1c(C)cc(C)c(C)c1O | 72 to 73 |
| CSC(C[C@@H]1CC(=O)N1[Si](C)(C)C(C)(C)C)(SC)SC | 61 to 62 |
| O=C(OCCn1c(-c2ccccc2)nc2cc(CN3CCN(C(c4ccccc4)c4ccccc4)CC3)ccc21)c1ccccc1 | 164 |
